How the values were obtained:
[1] = Measurement of brain exposure; assay type: in vivo; conditions: rat, brain homogenate, oral; 10 mg/kg p.o.; brains collected at 2 hours post-dosing; male obese Zucker fa/fa rats; read-out: brain homogenate exposure level
Protocol: Measurement of Brain Exposure
Male obese Zucker fa/fa rats were administered compounds, typically at 10 mg/kg p.o., and then brains were collected at 2 hours post-dosing for determination of brain concentration. Brains were weighed and homogenized with 4 mL 10 mM ammonium acetate buffer (pH 3), and the brain tissue homogenate samples were extracted via protein precipitation with acetonitrile. Samples were vortexed, centrifuged, and analyzed by liquid chromatography utilizing mass spectrometer selective detection (LC/MS/MS) using the heated nebulizer interface. Samples were quantitated using weighted (1/x^2) linear internal standard calibration curve. For example, when 1-(4-chlorophenyl)-2-(2-chlorophenyl)-N-(1-piperidinyl)-5-butyl-1H-imidazole-4-carboxamide was dosed at 10 mg/kg p.o., a brain homogenate exposure level of approximately 200 nM was determined; when 2-(2-chlorophenyl)-1-(4-chlorophenyl)-5-ethyl-N-[(1S,2S)-2-hydroxycyclohexyl]-1H-imidazole-4-carboxamide was dosed at 10 mg/kg p.o., a brain homogenate exposure level of approximately 200 nM was determined.

[2] = system: obese Zucker fa/fa rats; assay: Chronic feeding assay (body weight, food and water consumption); assay type: in vivo, rat; conditions: 10 mg/kg p.o. once a day, day 6 of treatment
Description: Evaluation of Compound's Efficacy on the Reduction of Body Weight and Food and Water Consumption in Obese Zucker fa/fa Rats
The purpose of this protocol is to determine the effect of chronic administration of an unknown compound on body weight and food and water consumption in obese Zucker fa/fa rats. Obese Zucker fa/fa rats are frequently used in the determination of compound efficacy in the reduction of body weight. This animal model has been successfully used in the identification and characterization of the efficacy profile of compounds that are or have been used in the management of body weight in obese humans (see, e.g., Al-Barazanji et al., Obes Res. 8:317-323, 2000; Assimacopoulos-Jeannet et al., Am. J. Physiol. 260(2 Pt 2):R278-283, 1991; Dryden et al., Horm. Metab. Res. 31:363-366, 1999; Edwards and Stevens, Pharmacol. Biochem. Behav. 47:865-872, 1994; Grinker et al., Pharmacol. Biochem. Behav. 12:265-275, 1980).
A typical study includes 60-80 male Zucker fa/fa (n=10/treatment group) with an average body weight of approximately 550 g. Rats are kept in standard animal rooms under controlled temperature and humidity and a 12/12 light dark cycle. Water and food are continuously available. Rats are single-housed in large rat shoeboxes containing grid floor. Animals are adapted to the grid floors and sham-dosed with study vehicle for at least four days before the recording of two-days baseline measurement of body weight and 24-hr food and water consumption. Rats are assigned to one of 6-8 treatment groups based upon their body weight on baseline. The groups are set up so that the mean and standard error of the mean of body weight were similar.
Animals are orally gavaged (2 mL/kg) daily before the dark phase of the LD/cycle for a pre-determined number of days (typically 6-14 days) with their assigned dose/compound. At this time, body weight, food and water consumption are measured. On the final day, animals are euthanized by CO2 inhalation, and the body weight is measured.

SMILES	concentration at 2 h [1] [nM]	melting point [°C]	increase in body weight from baseline [2]	reduction in body weight gain as compared to the vehicle control group [2]
CCCCc1c(C(=O)NN2CCCCC2)nc(-c2ccccc2Cl)n1-c1ccc(Cl)cc1 [1-(4-chlorophenyl)-2-(2-chlorophenyl)-N-(1-piperidinyl)-5-butyl-1H-imidazole-4-carboxamide]	~200			
O=C(N[C@H]1CCCC[C@@H]1O)c1cn(-c2ccc(Cl)cc2)c(-c2ccccc2Cl)n1 [2-(2-chlorophenyl)-1-(4-chlorophenyl)-N-[(1S,2S)-2-hydroxycyclohexyl]-1H-imidazole-4-carboxamide]			approximately 2.4%	approximately 50%
Cl.O=C(NNc1ccc(C(F)(F)F)cc1)c1cn(-c2ccc(Cl)cc2)c(-c2ccccc2Cl)n1 [2-(2-chlorophenyl)-1-(4-chlorophenyl)-N′-[4-(trifluoromethyl)phenyl]-1H-imidazole-4-carbohydrazide hydrochloride]			approximately 1.8%	approximately 60%

Now from value to compound, other results behind:

concentration at 2 h [1] [nM]	melting point [°C]	SMILES	increase in body weight from baseline [2]	reduction in body weight gain as compared to the vehicle control group [2]
~200		CCc1c(C(=O)N[C@H]2CCCC[C@@H]2O)nc(-c2ccccc2Cl)n1-c1ccc(Cl)cc1 [2-(2-chlorophenyl)-1-(4-chlorophenyl)-5-ethyl-N-[(1S,2S)-2-hydroxycyclohexyl]-1H-imidazole-4-carboxamide]		
	217 to 220	Cc1c(C(=O)NC2CCCCC2)nc(-c2ccccc2Cl)n1-c1ccc([N+](=O)[O-])cc1 [Example 23, N-cyclohexyl-2-(2-chlorophenyl)-5-methyl-1-(4-nitrophenyl)-1H-imidazole-4-carboxamide]		

From patent US6960601B2, “Preparation and use of imidazole derivatives for treatment of obesity” (Bayer Pharmaceuticals Corporation, priority 2001, dated 2005)
